The values below come from patent US12465590B2, “Oxalamido-substituted tricyclic inhibitors of hepatitis b virus” (priority 2019, dated 2025).

One assay deals with HBV. The experiment in a line: HBV inhibition assay in HepAD38 cells (extracellular HBV DNA by direct qPCR). The class given is cell-based, HBV genotype D subtype ayw. To be noted: 96 hours, read-out: HBV inh EC50. The text has this: HepAD38 cell line (Ladner et al., Antimicrob Agents Chemother, 1997, 41, 1715-20) was used for HBV inhibition assays. HepAD38 is a subclone, derived from hepatoblastoma cell line HepG2 (ATCC® Number: HB-8065), that expresses HBV genome (genotype D subtype ayw) under the transcriptional control of a tetracycline-responsive promoter in a TET-OFF system: addition of doxycycline, an antibiotic belonging to the class of tetracycline, suppresses HBV replication, while its removal switches on the process allowing HBV viral particles release in the cell supernatant. HepAD38 cell line is maintained in DMEM/F12, supplemented with 10% of fetal bovine serum, 1% of glutamine, 1% of penicillin/streptomycin, 0.4 mg/ml G418 and 0.3 ug/ml tetracycline. For the HBV inhibition assay, doxycycline-free medium is used in order to allow virion production.
HBV inhibition activity in vitro was performed in 96 multiwell plates. During the initial (primary) screening, compounds were first tested in triplicates at concentrations of 0.02 μM, 0.1 μM, 0.5 μM and 1 μM. For selected compounds, an 8-point dose-response curve was obtained using 1:2 serial dilutions (starting from 0.01 μM, 0.1 μM, 0.4 μM or 5 μM, depending on the degree of inhibition observed during the primary screening). From the dose-response curves, half maximal effective concentration (EC50) could be calculated (see also below).
In more detail, compounds—typically dissolved in DMSO stock solutions—were diluted to 2× the final desired concentration in 100 μl of the above medium (without doxycycline) and plated in three replicates in the 96-well plates.
Simultaneously, HepAD38 cells—extensively pre-washed in doxycycline-free medium in order to induce HBV production—were suspended at 2*10^4 cells in 100 μl of doxycycline-free medium and added to each well of the plate, to yield a final assay volume of 200 μl.
DMSO, used for stock solutions and compounds dilutions, was always present in the assays at a final concentration of 0.5%.
Plates were then incubated 96 hours at 37° C. and then subjected to cell viability assays and extracellular HBV quantification, in order to evaluate both the cytotoxic potential and the antiviral activity of compounds.
Cytotoxicity was assessed by a commercial fluorescence assay that measures the metabolic activity of cells, directly related to cell viability (Cell Titer Blue, Promega). For each compound, cytotoxicity was evaluated at the same concentration employed to evaluate its anti-HBV activity. Anti-HBV activity was evaluated by quantification of extracellular HBV DNA with direct qPCR. In particular, supernatant was collected and centrifuged for cell debris clarification, viral DNA was extracted from virions by addition of lysis buffer (1 mM 1,4-dithiothreitol, 0.2% sodium dodecyl sulphate) and incubated at 95° C. for 10 min. Samples were then diluted 1:40 and real time PCR amplification was performed with SYBR green assay (Power SYBR™ Green PCR Master Mix-Thermo Fisher Scientific) and specific HBV primer (HBV-DF:5′-[…]-3′ (SEQ ID No. 1), HBV-DR:5′-[…]-3′ (SEQ ID No. 2)).
Antiviral activity data for each compound are reported as EC50 value (see Table 1 legend). Excel and Graphpad Prism programs are typically used for data elaboration and EC50 calculation.
(In general: Quantitative PCR measures a nucleic acid by following its amplification.)
By EC50 is commonly meant the concentration giving half of the maximal effect. With `Cc1cc(NC(=O)c2c3c(cn2C)S(=O)(=O)NC2CN(C(=O)C(=O)N[C@H](C)C(F)(F)F)CCC2CO3)ccc1F` (mixture of isomers) [Example E66, Trans-N-(4-fluoro-3-methylphenyl)-2-methyl-7-(2-oxo-2-(((R)-1,1,1-trifluoropropan-2-yl)amino)acetyl)-5,5a,6,7,8,9,9a,10-octahydro-2H-pyrido[3,4-f]pyrrolo[3,4-b][1,4,5]oxathiazocine-1-carboxamide 4,4-dioxide], the EC50 is < 500 nM. On the same count and under the same terms, the result for `Cc1cc(NC(=O)c2c3c(cn2C)S(=O)(=O)NC2CN(C(=O)C(=O)NC4CC4)CCC2CO3)ccc1F` (racemic) [Example E67, Trans-7-(2-(cyclopropylamino)-2-oxoacetyl)-N-(4-fluoro-3-methylphenyl)-2-methyl-5,5a,6,7,8,9,9a,10-octahydro-2H-pyrido[3,4-f]pyrrolo[3,4-b][1,4,5]oxathiazocine-1-carboxamide 4,4-dioxide] reads < 500 nM. Still for that read-out and setting: the result for `Cc1cc(NC(=O)c2c3c(cn2C)S(=O)(=O)NC2CN(C(=O)C(=O)NCC(F)(F)F)CCC2CO3)ccc1F` (racemic) [Example E68, Trans-N-(4-fluoro-3-methylphenyl)-2-methyl-7-(2-oxo-2-((2,2,2-trifluoroethyl)amino)acetyl)-5,5a,6,7,8,9,9a,10-octahydro-2H-pyrido[3,4-f]pyrrolo[3,4-b][1,4,5]oxathiazocine-1-carboxamide 4,4-dioxide] reads < 500 nM; that for `Cc1cc(NC(=O)c2c3c(cn2C)S(=O)(=O)NC2CN(C(=O)C(=O)NC(C)(C)C(F)(F)F)CCC2CO3)ccc1F` (racemic) [Example E69, Trans-N-(4-fluoro-3-methylphenyl)-2-methyl-7-(2-oxo-2-((1,1,1-trifluoro-2-methylpropan-2-yl)amino)acetyl)-5,5a,6,7,8,9,9a,10-octahydro-2H-pyrido[3,4-f]pyrrolo[3,4-b][1,4,5]oxathiazocine-1-carboxamide 4,4-dioxide], < 500 nM.

Still in this assay, the particulars now being: Hepatitis B virus, 96 hours, read-out: HBV inh EC50.
Turning to `Cc1cc(NC(=O)c2c3c(cn2C)S(=O)(=O)NC2CCN(C(=O)C(=O)NC4CC4)CC2CO3)ccc1F` (racemic) [Example E54, Trans-8-(2-(cyclopropylamino)-2-oxoacetyl)-N-(4-fluoro-3-methylphenyl)-2-methyl-5,5a,6,7,8,9,9a,10-octahydro-2H-pyrido[4,3-f]pyrrolo[3,4-b][1,4,5]oxathiazocine-1-carboxamide 4,4-dioxide], the concentration for a half-maximal effect (EC50) was < 500 nM. `Cc1cc(NC(=O)c2c3c(cn2C)S(=O)(=O)NC2CCN(C(=O)C(=O)N4CC(F)(F)C4)CC2CO3)ccc1F` (racemic) [Example E55, Trans-8-(2-(3,3-difluoroazetidin-1-yl)-2-oxoacetyl)-N-(4-fluoro-3-methylphenyl)-2-methyl-5,5a,6,7,8,9,9a,10-octahydro-2H-pyrido[4,3-f]pyrrolo[3,4-b][1,4,5]oxathiazocine-1-carboxamide 4,4-dioxide]: the EC50 was < 500 nM. Still for that read-out and setting: the result for `Cc1cc(NC(=O)c2c3c(cn2C)S(=O)(=O)NC2CCN(C(=O)C(=O)N[C@@H](C)C(F)(F)F)CC2CO3)ccc1F` (mixture of isomers) [Example E56, Trans-N-(4-fluoro-3-methylphenyl)-2-methyl-8-(2-oxo-2-(((S)-1,1,1-trifluoropropan-2-yl)amino)acetyl)-5,5a,6,7,8,9,9a,10-octahydro-2H-pyrido[4,3-f]pyrrolo[3,4-b][1,4,5]oxathiazocine-1-carboxamide 4,4-dioxide] reads < 500 nM.

In the case of `Cc1cc(NC(=O)c2c3c(cn2C)S(=O)(=O)NC2CCN(C(=O)C(=O)NCC(F)(F)F)CC2CO3)ccc1F` (racemic) [Example E57, Trans-N-(4-fluoro-3-methylphenyl)-2-methyl-8-(2-oxo-2-((2,2,2-trifluoroethyl)amino)acetyl)-5,5a,6,7,8,9,9a,10-octahydro-2H-pyrido[4,3-f]pyrrolo[3,4-b][1,4,5]oxathiazocine-1-carboxamide 4,4-dioxide], the EC50 was < 500 nM.

Consider `Cc1cc(NC(=O)c2c3c(cn2C)S(=O)(=O)NC2CCN(C(=O)C(=O)NC(C)(C)C(F)(F)F)CC2CO3)ccc1F` (racemic) [Example E58, Trans-N-(4-fluoro-3-methylphenyl)-2-methyl-8-(2-oxo-2-((1,1,1-trifluoro-2-methylpropan-2-yl)amino)acetyl)-5,5a,6,7,8,9,9a,10-octahydro-2H-pyrido[4,3-f]pyrrolo[3,4-b][1,4,5]oxathiazocine-1-carboxamide 4,4-dioxide], for which the 50% effective concentration (EC50) is < 500 nM. On the same count and under the same terms, as for `Cc1cc(NC(=O)c2c3c(cn2C)S(=O)(=O)NC2CCN(C(=O)C(=O)N[C@H](C)C(F)(F)F)CC2CO3)ccc1F` (mixture of isomers) [Example E59, Trans-N-(4-fluoro-3-methylphenyl)-2-methyl-8-(2-oxo-2-(((R)-1,1,1-trifluoropropan-2-yl)amino)acetyl)-5,5a,6,7,8,9,9a,10-octahydro-2H-pyrido[4,3-f]pyrrolo[3,4-b][1,4,5]oxathiazocine-1-carboxamide 4,4-dioxide], the figure is < 500 nM; as for `Cc1cc(NC(=O)c2c3c(cn2C)S(=O)(=O)NC2CN(C(=O)C(=O)N[C@H](C)C(F)(F)F)CCC2CO3)ccc1F` (mixture of isomers) [Example E60, Cis-N-(4-fluoro-3-methylphenyl)-2-methyl-7-(2-oxo-2-(((R)-1,1,1-trifluoropropan-2-yl)amino)acetyl)-5,5a,6,7,8,9,9a,10-octahydro-2H-pyrido[3,4-f]pyrrolo[3,4-b][1,4,5]oxathiazocine-1-carboxamide 4,4-dioxide], < 500 nM; as for `Cc1cc(NC(=O)c2c3c(cn2C)S(=O)(=O)NC2CN(C(=O)C(=O)NCC(F)(F)F)CCC2CO3)ccc1F` (racemic) [Example E61, Cis-N-(4-fluoro-3-methylphenyl)-2-methyl-7-(2-oxo-2-((2,2,2-trifluoroethyl)amino)acetyl)-5,5a,6,7,8,9,9a,10-octahydro-2H-pyrido[3,4-f]pyrrolo[3,4-b][1,4,5]oxathiazocine-1-carboxamide 4,4-dioxide], < 500 nM. In the case of `Cc1cc(NC(=O)c2c3c(cn2C)S(=O)(=O)NC2CN(C(=O)C(=O)NC(C)(C)C(F)(F)F)CCC2CO3)ccc1F` (racemic) [Example E62, Cis-N-(4-fluoro-3-methylphenyl)-2-methyl-7-(2-oxo-2-((1,1,1-trifluoro-2-methylpropan-2-yl)amino)acetyl)-5,5a,6,7,8,9,9a,10-octahydro-2H-pyrido[3,4-f]pyrrolo[3,4-b][1,4,5]oxathiazocine-1-carboxamide 4,4-dioxide], the EC50 was < 500 nM. On to `Cc1cc(NC(=O)c2c3c(cn2C)S(=O)(=O)NC2CN(C(=O)C(=O)N4CC(F)(F)C4)CCC2CO3)ccc1F` (racemic) [Example E63, Cis-7-(2-(3,3-difluoroazetidin-1-yl)-2-oxoacetyl)-N-(4-fluoro-3-methylphenyl)-2-methyl-5,5a,6,7,8,9,9a,10-octahydro-2H-pyrido[3,4-f]pyrrolo[3,4-b][1,4,5]oxathiazocine-1-carboxamide 4,4-dioxide], for which the concentration for a half-maximal effect (EC50) is < 500 nM. For the compound `Cc1cc(NC(=O)c2c3c(cn2C)S(=O)(=O)NC2CN(C(=O)C(=O)NC4CC4)CCC2CO3)ccc1F` (racemic) [Example E64, Cis-7-(2-(cyclopropylamino)-2-oxoacetyl)-N-(4-fluoro-3-methylphenyl)-2-methyl-5,5a,6,7,8,9,9a,10-octahydro-2H-pyrido[3,4-f]pyrrolo[3,4-b][1,4,5]oxathiazocine-1-carboxamide 4,4-dioxide], the concentration giving a half-maximal response (EC50) is < 500 nM. On the same count and under the same terms, as for `Cc1cc(NC(=O)c2c3c(cn2C)S(=O)(=O)NC2CN(C(=O)C(=O)N[C@@H](C)C(F)(F)F)CCC2CO3)ccc1F` (mixture of isomers) [Example E65, Cis-N-(4-fluoro-3-methylphenyl)-2-methyl-7-(2-oxo-2-(((S)-1,1,1-trifluoropropan-2-yl)amino)acetyl)-5,5a,6,7,8,9,9a,10-octahydro-2H-pyrido[3,4-f]pyrrolo[3,4-b][1,4,5]oxathiazocine-1-carboxamide 4,4-dioxide], the figure is < 500 nM.
